# From patent EP0234931A1, “Azaanthracene compounds” (TAISHO PHARMACEUTICAL CO. LTD, priority 1986, dated 1987)
# System: p388 lymphocytic leukemia
# Test: P388 Lymphocytic Leukemia Test
# Format: in vivo, CDF₁ mice
# Conditions: median survival time treated/control
# Experimental: P388 Lymphocytic Leukemia Test
# Female, CDF₁ mice (5-6 weeks old, weighing 17-20 g) were intraperitoneally transplanted with 1 × 10⁶ cells of p388 lymphocytic leukemia passaged on female, DBA/2 mice on day 0.
# A suspension of the compound of formula (I) in 0.5% of gum arabic saline solution was administered intraperitoneally once a day, 5 times in all, from day l to day 5, or 2 times in all, day l and day 5. A solution of 5-fluorouracil in saline served as a reference drug, and was administered similarly. Control group were similarly administered with only 0.5% gum arabic saline solution.
# Eight animals were used for the treated group with the compound of formula (I) and the reference drug, respectively, and 16 animals for control group.
# The antitumor effect was evaluated according to the criterion of the National Cancer Institute of the United States (NCI). The survivors of each group were recorded for 30 days, and the value of T/C × 100 (%) was calculated from the median survival times for the treated animals (T) and the control animals (C). When the value is 125 or more, the drug is judged to be effective.
# [1] = Dose 25.0 mg/kg intraperitoneally, administration day 1 - 5
# [2] = Dose 50.0 mg/kg intraperitoneally, administration day 1 - 5
structure (smiles),measurement,setting,value
"O=c1[nH]cc(F)c(=O)[nH]1 [5-fluoro-uracil, 5-fluorouracil, reference compound]",T/C x 100,"Dose 3.1 mg/kg intraperitoneally, administration day 1 - 5",136%
same,T/C x 100,"Dose 6.3 mg/kg intraperitoneally, administration day 1 - 5",148%
same,T/C x 100,"Dose 12.5 mg/kg intraperitoneally, administration day 1 - 5",166%
same,T/C x 100,[1],176%
"CN(C)CCNC(=O)c1c(O)c2ccccc2c2nc3ccncc3nc12 [Compound 1, N-β-dimethylaminoethyl 5-hydroxybenzo[f]pyrido[3,4-b]quinoxaline-6-carboxamide]",T/C x 100,"Dose 6.3 mg/kg intraperitoneally, administration day 1, 5, 30 days observation",133%
same,T/C x 100,"Dose 12.5 mg/kg intraperitoneally, administration day 1, 5",137%
same,T/C x 100,"Dose 25.0 mg/kg intraperitoneally, administration day 1, 5",275%
"CN(C)CCNC(=O)c1c(O)c2ccccc2c2nc3ncccc3nc12 [Compound 5, N-β-dimethylaminoethyl 5-hydroxybenzo[f]pyrido[3,2-b]quinoxaline-6-carboxamide]",T/C x 100,[1],130%
same,T/C x 100,"Dose 50.0 mg/kg intraperitoneally, administration day 1, 5",135%
same,T/C x 100,"Dose 100 mg/kg intraperitoneally, administration day 1, 5",195%
same,T/C x 100,"Dose 200 mg/kg intraperitoneally, administration day 1, 5",200%
"O=C(NCCNCCO)c1c(O)c2ccccc2c2nc3ncccc3nc12 [Compound 7, N-2-(2-hydroxyethylamino)ethyl 5-hydroxybenzo[f]pyrido[3,2-b]quinoxaline-6-carboxamide]",T/C x 100,[1],174%
same,T/C x 100,[2],227%
"CN(C)CCNC(=O)c1c(O)c2ccccc2c2nc3ncncc3nc12 [Compound 8, N-β-dimethylaminoethyl 5-hydroxynaphtho[2,1-g]pteridine-6-carboxamide]",T/C x 100,[1],133%
same,T/C x 100,[2],153%
same,T/C x 100,"Dose 100 mg/kg intraperitoneally, administration day 1 - 5",148%
